Data taken from patent US20230286958A1, “PLASMA KALLIKREIN INHIBITORS” (Merck Sharp & Dohme LLC, priority 2020, published 2023).

Key:
[1] = molecular target: human Factor XIa (Homo sapiens (Human), UniProt P03951); assay: Factor XIa Assay (fluorogenic substrate GPR-AFC); format: biochemical; settings: Factor XIa (FXIa)
[2] = molecular target: Human plasma kallikrein (Homo sapiens (Human), UniProt P03952); assay: Kallikrein Assay (fluorogenic substrate Acetyl-K-P-R-AFC); format: biochemical; settings: Plasma Kallikrein (PKal)
Sequence of Human plasma kallikrein (P03952 391-638): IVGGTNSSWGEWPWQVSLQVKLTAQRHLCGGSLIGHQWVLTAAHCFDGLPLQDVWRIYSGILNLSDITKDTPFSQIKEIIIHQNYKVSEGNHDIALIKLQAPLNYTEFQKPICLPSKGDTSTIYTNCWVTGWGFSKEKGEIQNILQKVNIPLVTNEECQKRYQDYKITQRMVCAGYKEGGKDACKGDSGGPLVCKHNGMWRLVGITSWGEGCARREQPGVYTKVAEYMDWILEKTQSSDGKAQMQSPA
Sequence of Human plasma kallikrein (P03952 20-390 partner): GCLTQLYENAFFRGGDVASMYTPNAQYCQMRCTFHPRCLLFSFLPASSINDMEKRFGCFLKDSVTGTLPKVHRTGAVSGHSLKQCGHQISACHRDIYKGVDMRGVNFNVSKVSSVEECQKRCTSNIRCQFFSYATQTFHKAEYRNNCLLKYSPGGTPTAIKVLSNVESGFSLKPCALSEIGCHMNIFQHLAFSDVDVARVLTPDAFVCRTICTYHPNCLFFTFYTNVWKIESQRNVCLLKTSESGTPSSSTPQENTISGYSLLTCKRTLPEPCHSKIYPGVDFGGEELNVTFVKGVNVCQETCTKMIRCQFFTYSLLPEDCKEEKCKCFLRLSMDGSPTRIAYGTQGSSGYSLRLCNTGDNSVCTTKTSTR
Summary of the method: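 Ki is derived from IC50 with the Cheng-Prusoff equation, and IC50 from the inflection point of a four-parameter logistic curve. The rate of AFC release is read with 0.5 nM purified enzyme and […] substrate at room temperature or 37 °C.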

Sequence of human Factor XIa (P03951 388-625 limits assumed): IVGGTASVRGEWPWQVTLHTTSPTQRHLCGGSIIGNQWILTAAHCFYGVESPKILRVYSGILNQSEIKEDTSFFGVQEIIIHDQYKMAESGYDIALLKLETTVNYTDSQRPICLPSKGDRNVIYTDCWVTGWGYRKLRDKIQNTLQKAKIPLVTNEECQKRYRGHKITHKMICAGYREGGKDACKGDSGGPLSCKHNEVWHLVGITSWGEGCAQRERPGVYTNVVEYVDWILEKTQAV
Sequence of human Factor XIa (P03951 19-387 partner limits assumed): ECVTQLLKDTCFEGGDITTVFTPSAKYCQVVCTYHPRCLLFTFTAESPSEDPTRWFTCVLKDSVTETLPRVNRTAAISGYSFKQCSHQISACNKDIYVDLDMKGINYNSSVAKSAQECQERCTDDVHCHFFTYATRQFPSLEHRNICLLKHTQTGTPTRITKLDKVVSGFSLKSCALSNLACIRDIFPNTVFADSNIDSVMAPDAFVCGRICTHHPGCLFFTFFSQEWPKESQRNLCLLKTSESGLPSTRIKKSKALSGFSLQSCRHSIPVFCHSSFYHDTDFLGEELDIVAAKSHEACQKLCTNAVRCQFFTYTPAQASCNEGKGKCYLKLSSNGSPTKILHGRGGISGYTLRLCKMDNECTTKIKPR

SMILES	IC50 [1]	IC50 [2]
Cc1cc(Cn2cc(NC(=O)c3nc(-c4c(C(F)F)ccc(Cl)c4F)cnc3C(C)O)cn2)nnc1N1C[C@H]2C[C@H]2C1=O (single isomer, unassigned) [Example 208]	1050 nM	12.7 nM
Cc1cc(C(C)n2cc(NC(=O)c3nc(-c4c(C(F)F)ccc(Cl)c4F)cnc3C(C)O)cn2)cnc1N1C[C@H]2C[C@H]2C1=O (single isomer, unassigned) [Example 213, 6-(3-Chloro-6-(difluoromethyl)-2-fluorophenyl)-3-((Ror S)-1-hydroxyethyl)-N-(1-((R or S)-1-(5-methyl-6-((1R,5S)-2-oxo-3-azabicyclo[3.1.0]hexan-3-yl)pyridin-3-yl)ethyl)-1H-pyrazol-4-yl)pyrazine-2-carboxamide]	2030 nM	0.9 nM
COc1cc(C(C)n2cc(NC(=O)c3nc(-c4c(C(F)F)ccc(Cl)c4F)cnc3C)cn2)cnc1N1C[C@H]2C[C@H]2C1=O (single isomer, unassigned) [Example 218, 6-(3-Chloro-6-(difluoromethyl)-2-fluorophenyl)-N(1-((S or R)-1-(5-methoxy-6-((1R,5S)-2-oxo-3-azabicyclo[3.1.0]hexan-3-yl)pyridin-3-yl)ethyl)-1H-pyrazol-4-yl)-3-methylpyrazine-2-carboxamide]	414 nM	1.8 nM
COc1cc(C(C)n2cc(NC(=O)c3nc(-c4c(C(F)F)ccc(Cl)c4F)cnc3C)cn2)cnc1N1C[C@H]2C[C@H]2C1=O (single isomer, unassigned) [Example 219, 6-(3-Chloro-6-(difluoromethyl)-2-fluorophenyl)-N-(1-((R or S)-1-(5-methoxy-6-((1R,5S)-2-oxo-3-azabicyclo[3.1.0]hexan-3-yl)pyridin-3-yl)ethyl)-1H-pyrazol-4-yl)-3-methylpyrazine-2-carboxamide]	549 nM	0.3 nM
Cc1ncc(-c2c(C(F)F)ccc(Cl)c2F)nc1C(=O)Nc1cnn(C(C)c2cnc(N3C[C@H]4C[C@H]4C3=O)c(OC(F)F)c2C)c1 (single isomer, unassigned) [Example 224]	> 10000 nM	66.1 nM
Cc1ncc(-c2c(C(F)F)ccc(Cl)c2F)nc1C(=O)Nc1cnn(C(C)c2cnc(N3C[C@H]4C[C@H]4C3=O)c(OC(F)F)c2C)c1 (single isomer, unassigned) [Example 225]	5740 nM	0.9 nM
Cc1cc(C(C)n2cc(NC(=O)c3nc(-c4c(C(F)F)ccc(Cl)c4F)cnc3C(C)O)cn2)nnc1N1C[C@H]2C[C@H]2C1=O (single isomer, unassigned) [Example 230, 6-(3-Chloro-6-(difluoromethyl)-2-fluorophenyl)-3-((S or R)-1-hydroxyethyl)-N-(1-((S or R)-1-(5-methyl-6-((1R,5S)-2-oxo-3-azabicyclo[3.1.0]hexan-3-yl)pyridazin-3-yl)ethyl)-1H-pyrazol-4-yl)pyrazine-2-carboxamide]	1330 nM	1.1 nM
Cc1cc(C(C)n2cc(NC(=O)c3nc(-c4c(C(F)F)ccc(Cl)c4F)cnc3C(C)O)cn2)nnc1N1C[C@H]2C[C@H]2C1=O (single isomer, unassigned) [Example 231, 6-(3-Chloro-6-(difluoromethyl)-2-fluorophenyl)-3-((R or S)-1-hydroxyethyl)-N-(1-((R or S)-1-(5-methyl-6-((1R,5S)-2-oxo-3-azabicyclo[3.1.0]hexan-3-yl)pyridazin-3-yl)ethyl)-1H-pyrazol-4-yl)pyrazine-2-carboxamide]	903 nM	5 nM
Cc1ncc(-c2c(C#N)ccc(Cl)c2F)nc1C(=O)Nc1cnn(C(C)c2cnc(N3C[C@H]4C[C@H]4C3=O)c(C)n2)c1 (single isomer, unassigned) [Example 234, 6-(3-Chloro-6-cyano-2-fluorophenyl)-3-methyl-N-(1-((R or S)-1-(6-methyl-5-((1R,5S)-2-oxo-3-azabicyclo[3.1.0]hexan-3-yl)pyrazin-2-yl)ethyl)-1H-pyrazol-4-yl)pyrazine-2-carboxamide]	679 nM	1 nM
Cc1ncc(-c2c(C#N)ccc(Cl)c2F)nc1C(=O)Nc1cnn(C(C)c2cnc(N3C[C@H]4C[C@H]4C3=O)c(C)n2)c1 (single isomer, unassigned) [Example 235, 6-(3-Chloro-6-cyano-2-fluorophenyl)-3-methyl-N-(1-((S or R)-1-(6-methyl-5-((1R,5S)-2-oxo-3-azabicyclo[3.1.0]hexan-3-yl)pyrazin-2-yl)ethyl)-1H-pyrazol-4-yl)pyrazine-2-carboxamide]	2060 nM	0.4 nM
Cc1cc(C(C)n2cc(NC(=O)c3nc(-c4c(C#N)ccc(Cl)c4F)cnc3C)cn2)nnc1N1C[C@H]2C[C@H]2C1=O (single isomer, unassigned) [Example 236, 6-(3-Chloro-6-cyano-2-fluorophenyl)-3-methyl-N-(1-((R or S)-1-(5-methyl-6-((1R,5S)-2-oxo-3-azabicyclo[3.1.0]hexan-3-yl)pyridazin-3-yl)ethyl)-1H-pyrazol-4-yl)pyrazine-2-carboxamide]	750 nM	0.7 nM
Cc1cc(C(C)n2cc(NC(=O)c3nc(-c4c(C#N)ccc(Cl)c4F)cnc3C)cn2)nnc1N1C[C@H]2C[C@H]2C1=O (single isomer, unassigned) [Example 237, 6-(3-Chloro-6-cyano-2-fluorophenyl)-3-methyl-N-(1-((S or R)-1-(5-methyl-6-((1R,5S)-2-oxo-3-azabicyclo[3.1.0]hexan-3-yl)pyridazin-3-yl)ethyl)-1H-pyrazol-4-yl)pyrazine-2-carboxamide]	561 nM	4.3 nM

Stronger by IC50 [1], values ahead:

IC50 [1]	IC50 [2]	SMILES
389 nM	0.3 nM	CC(c1cnc(N2C[C@H]3C[C@H]3C2=O)c(F)c1)n1cc(NC(=O)c2nc(-c3c(C(F)F)ccc(Cl)c3F)cnc2CO)cn1 (single isomer, unassigned) [Example 205, 6-(3-Chloro-6-(difluoromethyl)-2-fluorophenyl)-N-(1-((S or R)-1-(5-fluoro-6-((1R,5S)-2-oxo-3-azabicyclo[3.1.0]hexan-3-yl)pyridin-3-yl)ethyl)-1H-pyrazol-4-yl)-3-(hydroxymethyl)pyrazine-2-carboxamide]
354 nM	1 nM	Cc1cc(C(C)n2cc(NC(=O)c3nc(-c4c(C(F)F)ccc(Cl)c4F)cnc3C(C)O)cn2)cnc1N1C[C@H]2C[C@H]2C1=O (single isomer, unassigned) [Example 212, 6-(3-Chloro-6-(difluoromethyl)-2-fluorophenyl)-3-((S or R)-1-hydroxyethyl)-N-(1-((R or S)-1-(5-methyl-6-((1R,5S)-2-oxo-3-azabicyclo[3.1.0]hexan-3-yl)pyridin-3-yl)ethyl)-1H-pyrazol-4-yl)pyrazine-2-carboxamide]
194 nM	1.8 nM	Cc1cc(C(C)n2cc(NC(=O)c3nc(-c4c(C(F)F)ccc(Cl)c4F)cnc3C(C)O)cn2)nnc1N1C[C@H]2C[C@H]2C1=O (single isomer, unassigned) [Example 232, 6-(3-Chloro-6-(difluoromethyl)-2-fluorophenyl)-3-((S or R)-1-hydroxyethyl)-N-(1-((R or S)-1-(5-methyl-6-((1R,5S)-2-oxo-3-azabicyclo[3.1.0]hexan-3-yl)pyridazin-3-yl)ethyl)-1H-pyrazol-4-yl)pyrazine-2-carboxamide]
186 nM	0.4 nM	Cc1cc(C(C)n2cc(NC(=O)c3nc(-c4c(C(F)F)ccc(Cl)c4F)cnc3C(C)O)cn2)cnc1N1C[C@H]2C[C@H]2C1=O (single isomer, unassigned) [Example 210, 6-(3-Chloro-6-(difluoromethyl)-2-fluorophenyl)-3-((S or R)-1-hydroxyethyl)-N-(1-((S or R)-1-(5-methyl-6-((1R,5S)-2-oxo-3-azabicyclo[3.1.0]hexan-3-yl)pyridin-3-yl)ethyl)-1H-pyrazol-4-yl)pyrazine-2-carboxamide]
178 nM	0.37 nM	Cc1cc(C(C)n2cc(NC(=O)c3nc(-c4c(C(F)F)ccc(Cl)c4F)cnc3C(C)O)cn2)nnc1N1C[C@H]2C[C@H]2C1=O (single isomer, unassigned) [Example 229, 6-(3-Chloro-6-(difluoromethyl)-2-fluorophenyl)-3-((R or S)-1-hydroxyethyl)-N-(1-((S or R)-1-(5-methyl-6-((1R,5S)-2-oxo-3-azabicyclo[3.1.0]hexan-3-yl)pyridazin-3-yl)ethyl)-1H-pyrazol-4-yl)pyrazine-2-carboxamide]
167 nM	3.8 nM	Cc1cc(Cn2cc(NC(=O)c3nc(-c4c(C(F)F)ccc(Cl)c4F)cnc3C(C)O)cn2)nnc1N1C[C@H]2C[C@H]2C1=O (single isomer, unassigned) [Example 209]
120 nM	0.3 nM	CC(c1cnc(N2C[C@H]3C[C@H]3C2=O)c(F)c1)n1cc(NC(=O)c2nc(-c3c(C(F)F)ccc(Cl)c3F)cnc2CO)cn1 (single isomer, unassigned) [Example 206, 6-(3-Chloro-6-(difluoromethyl)-2-fluorophenyl)-N-(1-((R or S)-1-(5-fluoro-6-((1R,5S)-2-oxo-3-azabicyclo[3.1.0]hexan-3-yl)pyridin-3-yl)ethyl)-1H-pyrazol-4-yl)-3-(hydroxymethyl)pyrazine-2-carboxamide]
50 nM	0.6 nM	Cc1cc(C(C)n2cc(NC(=O)c3nc(-c4c(C(F)F)ccc(Cl)c4F)cnc3C(C)O)cn2)cnc1N1C[C@H]2C[C@H]2C1=O (single isomer, unassigned) [Example 211, 6-(3-Chloro-6-(difluoromethyl)-2-fluorophenyl)-3-((R or S)-1-hydroxyethyl)-N-(1-((S or R)-1-(5-methyl-6-((1R,5S)-2-oxo-3-azabicyclo[3.1.0]hexan-3-yl)pyridin-3-yl)ethyl)-1H-pyrazol-4-yl)pyrazine-2-carboxamide]
